“Also recorded” adds a separate entry of the source. Read-outs that look alike come from different tables or passages of the source.
Columns and labels:
[1] = tested on: MCF-7, MDA 468, KM12 and HCC 2998; assay: MTT assay, panel of four cell lines, results in words; format: cell-based, human; conditions: compared to compound 1
Description: (§1) A range of compounds were evaluated in MTT assays following 3 day exposure against a panel of two human breast cancer cell lines MCF-7 (ER+) and MDA 468 (ER−), and two colon cancer cell lines KM12 and HCC 2998. In general the breast cell lines were more sensitive to the agents and the MDA 468 line the most sensitive of the four (Table 2). The benchmark active compound was 5-fluoro-2-(3,4-dimethoxyphenyl)benzothiazole (1) with GI50 values<0.1 nM against the two breast cell lines. […] The most interesting series of compounds were those combining a 5-fluoro group with two oxygenated substituents in the 3′,4′-positions where minor, seemingly conservative, structural changes were associated with a dramatic variations in activity (when compared to 1). […] In summary, this in vitro screen led to the identification of the fluorinated 2-(3,4-dimethoxyphenyl)benzothiazole structure as a novel antitumor pharmacophore with the 5-fluoro analogue (1) astride a pinnacle of activity.

[2] = tested on: NCI in vitro 60 human cancer cell panel; assay: NCI in vitro 60 human cancer cell panel, sulforhodamine B assay; format: cell-based; conditions: for sensitivity of cancer cell panels / antitumour activity in vitro: NCI mean GI50 graphs, FIGS. 1 and 8 to 12
Description: Results from the more extensive NCI in vitro 60 human cancer cell panel^15 corroborated the results (above). The mean GI50 values across the range of compounds (above), including the two series of esters (11-21) are an unremarkable 10-100 μM (data not shown); however, these values disguise significant cell selectivity. […] Full NCI mean GI50 graphs for compounds (1,2,3,4,101,102) are included herein as FIGS. 1 and 8 to 12.
The results shown on FIG. 1 were generated by treating the cells with an active agent for 48 hours, in this case compound 1, before determination of viability by sulforhodamine B assay.

MDA 468 = assay: MTT assay, 3 day exposure, MDA 468; format: cell-based; conditions: Homo sapiens, MDA 468 (breast), read-out: GI50 values in cell lines, MDA 468
Description: as §1
(§2) The assays/methods used to generate the results referred to herein are well known to those skilled in the art and therefore it has not been necessary to describe them in detail.

HCC 2998 = assay: MTT assay, 3 day exposure, HCC 2998; format: cell-based; conditions: Homo sapiens, HCC 2998, 72 h, HCC 2998 (colon), MTT, 3 day exposure, triplicate; read-out: GI50 values in cell lines, HCC 2998
Description: as §1, §2

MCF-7 [3] = assay: MTT assay, 3 day exposure, MCF-7; format: cell-based; conditions: Homo sapiens, read-out: GI50 values in cell lines, MCF-7
Description: as §1, §2

KM 12 = assay: MTT assay, 3 day exposure, KM12; format: cell-based, human; conditions: KM 12 (colon), read-out: GI50 values in cell lines, KM 12
Description: as §1, §2

MCF-7 [4] = assay: Growth inhibition alone or in combination with resveratrol, MCF-7; format: cell-based, human; conditions: MCF-7 (cyp lal-inducible), resveratrol 51 μM
Description: The results shown in FIGS. 3a and 3b were generated using MCF-7 (FIG. 3a) and HCC 2998 (FIG. 3b) cells. The said cells were treated with DF 203 or compound 1, alone or in combination with resveratrol (51 μM) an inhibitor of cyp lal activity. It can be seen that in MCF-7 cells (cyp lal-inducible) the activity of DF 203 was abolished.

cyp lal [5] = target: T1, cyp lal (Homo sapiens, UniProt P04798); assay: Inhibition of cyp lal (EROD) activity, de-ethylation of ethoxyresorufin by cyp lal microsomes; format: biochemical
T1 construct: host or cells: microsomes
T1 sequence (P04798 1-512): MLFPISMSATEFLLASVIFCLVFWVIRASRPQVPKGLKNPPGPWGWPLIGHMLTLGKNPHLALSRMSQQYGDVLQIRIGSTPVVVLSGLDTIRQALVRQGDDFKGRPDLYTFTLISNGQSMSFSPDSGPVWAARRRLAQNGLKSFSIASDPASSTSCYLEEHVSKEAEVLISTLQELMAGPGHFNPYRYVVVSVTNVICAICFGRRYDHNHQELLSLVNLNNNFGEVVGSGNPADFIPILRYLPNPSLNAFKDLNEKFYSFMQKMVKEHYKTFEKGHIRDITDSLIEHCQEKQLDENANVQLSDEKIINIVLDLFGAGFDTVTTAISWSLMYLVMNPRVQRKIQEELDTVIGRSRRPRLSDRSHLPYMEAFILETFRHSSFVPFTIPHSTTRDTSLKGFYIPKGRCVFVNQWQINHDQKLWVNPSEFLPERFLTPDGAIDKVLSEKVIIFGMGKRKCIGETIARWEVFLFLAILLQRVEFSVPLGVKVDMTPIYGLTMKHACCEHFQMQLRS
Description: Compound 1 inhibits cyp lal (EROD) activity in a dose dependent manner (IC50=8 μM; FIG. 4).
The results shown in FIG. 4 were generated by measuring the de-ethylation of ethoxyresorufin by cyp lal microsomes in the absence and the presence of increasing concentrations of compound 1. DF 203 was used as a positive control.

cyp lbl = assay: Induction of cyp lbl gene transcription; format: cell-based
cyp lal [6] = assay: Induction of cyp lal protein expression by Western Blot; format: cell-based
Description: These findings have been verified following examination of induction of cyp lal protein expression by Western Blot. The following cell lines were used to represent sensitive models: MCF-7, MDA 468 (breast carcinoma), KM12 and HCC 2998 (colon carcinoma) lines.

cyp lal [7] = assay: Induction of cyp lal gene transcription; format: cell-based
Description: These cell lines are known to be sensitive to compound 1 and 2-(4-amino-3-methylphenyl)-5-fluorobenzothiazole (102, 5F 203; NSC 703786; WO 95/06469) In cell lines which are sensitive to compound 1 only, cyp lal gene transcription was not induced.
The results shown in FIG. 2 were generated by treating the cells with 1 μM of an active agent for 24 hours before determination of changes in cyp lal gene expression.

[8] = tested on: DNA of MCF-7, MDA 468, KM12 and HCC 2998 cells; assay: DNA adduct formation; format: cell-based, human; conditions: MCF-7, MDA 468, KM 12 and HCC 2998 cells; 10 μM, 24 hours
MCF-7 [9] = conditions: aminophenyl benzothiazole sensitive cells with inducible cyp lal; Hose et al 2003; cited from earlier work
[10] = 72 h, MTT, 3 day exposure, triplicate
[11] = MCF7, 72 h, MCF-7 (breast), MTT, 3 day exposure, triplicate
[12] = Homo sapiens, KM12, 72 h, MTT, 3 day exposure, triplicate
[13] = MCF7, MCF-7 (breast), value in nM

In the case of COc1ccc(-c2nc3ccccc3s2)cc1OC [Compound 4, 2-(3,4-Dimethoxyphenyl)benzothiazole], the “growth inhibitory potency in words” value [1] is reported as “retained sub-micromolar activity against MDA 468”, the melting point is reported as 141 to 143 °C and the “sensitivity of cancer cell panels / antitumour activity in vitro” value [2] is reported as “no cancer cells to be particularly sensitive; also recorded: attenuated pattern of activity”. It also gave a GI50 (MDA 468; [10]) of 530 nM.

For COc1ccc(-c2nc3ccc(F)cc3s2)cc1OC [Compound 3, 6-Fluoro-2-(3,4-dimethoxyphenyl)benzothiazole], the “growth inhibitory potency in words” value [1] was “retained nanomolar growth inhibitory potency against one or more of the cell lines”, the GI50 (HCC 2998) was 6.21 µM and the melting point was 153 to 155 °C. For the same compound, the GI50 (MCF-7 [3]; [11]) was 62 nM, the GI50 (KM 12; [12]) was 24100 nM and the “sensitivity of cancer cell panels / antitumour activity in vitro” value [2] was “reduced activity against cancer cells when compared to compound 1; also recorded: demonstrates antitumour activity in vitro; also recorded: potent (but attenuated compared to 1), activity in the colon and NSCL sub-panels”. It also gave a GI50 (MDA 468; [10]) of 5 nM.

For Cc1cc(-c2nc3ccccc3s2)ccc1N [Compound 101, 2-(4-amino-3-methylphenyl)benzothiazole, reference compound], the “effect of resveratrol on growth inhibitory activity” value (MCF-7 [4]) was “block the activity”, the “effect of resveratrol on growth inhibitory activity” value (MCF-7 [4]; listed as DF 203) was “abolished” and the GI50 (HCC 2998) was > 100 µM. The GI50 (MCF-7 [3]; [11]) was < 0.1 nM, the GI50 (KM 12; [12]) was > 100000 nM and the “sensitivity of cancer cell panels / antitumour activity in vitro” value [2] was “ovarian and breast cancer cells are particularly sensitive”. For the same compound, the GI50 (MDA 468; [10]) was < 0.1 nM.

In the case of COc1ccc(-c2nc3cc(F)ccc3s2)cc1OC [Compound 1, 2-(3,4-dimethoxyphenyl)-5-fluorobenzothiazole], the IC50 (cyp lal [5]) is reported as 8 µM, the “induction of cyp lbl gene transcription” value (cyp lbl) is reported as “can be induced” and the “induction of cyp lbl transcription” value (cyp lbl; certain compound 1-sensitive colon and lung carcinoma cells) is reported as “no induction of cyp-lbl transcription”. The GI50 (HCC 2998) was 0.00025 µM, the “induction of cyp lal protein” value (cyp lal [6]; colon cell lines KM12 and HCC 2998) was “not induced” and the “induction of cyp lal protein” value (cyp lal [6]; lysates of MCF-7 and MDA 468 breast cells) was “Induction of cyp lal protein was observed”. For the same compound, the GI50 (MCF-7 [3]; [11]) was < 0.1 nM, the GI50 (MCF-7 [3]; [13]) was < 0.1 nM and the GI50 (KM 12; [12]) was 290 nM. For the same compound, the “induction of cyp lal gene transcription” value (cyp lal [7]; MCF-7, T-47D, TK-10, NC1 and 1460 cells, 1 μM, 24 hours) was “able to induce cyp lal gene transcription”, the “induction of cyp lal gene transcription” value (cyp lal [7]; cell lines which are sensitive to compound 1 only) was “not induced” and the GI50 ([2]; Homo sapiens, colon and NSCL sub-panels, 48 hours, read-out: GI50 values against some cell lines) was < 10 nM. For the same compound, the GI50 (MDA 468; [10]) was < 0.1 nM and the GI50 (MDA 468; value in nM) was < 0.1 nM.

With COc1ccc(-c2nc3c(F)cccc3s2)cc1OC [Compound 2, 4-Fluoro-2-(3,4-dimethoxyphenyl)benzothiazole] the “growth inhibitory potency in words” value [1] was “retained nanomolar growth inhibitory potency against one or more of the cell lines”, the DNA adducts formed [8] was “One major adduct species” and the melting point was 129 °C. It also gave a GI50 (MCF-7 [3]; [11]) of 5 nM, a GI50 (MCF-7 [3]; [13]) of 2.9 nM and a GI50 (KM 12; [12]) of 850 nM. For the same compound, the GI50 (KM 12; value in nM) was 78.4 nM, the “sensitivity of cancer cell panels / antitumour activity in vitro” value [2] was “reduced activity against cancer cells when compared to compound 1; also recorded: substantial potent and selective antitumour activity; also recorded: potent (but attenuated compared to 1), activity in the colon and NSCL sub-panels” and the GI50 (MDA 468; [10]) was 5 nM. The GI50 (MDA 468; value in nM) was 3.4 nM.

For Cc1cc(-c2nc3cc(F)ccc3s2)ccc1N [Compound 102, 2-(4-amino-3-methylphenyl)-5-fluorobenzothiazole, reference compound], the GI50 (HCC 2998) is listed as > 100 µM, the “effect of resveratrol on activity” value (MCF-7 [9]) is listed as “block the activity” and the GI50 (MCF-7 [3]; [11]) is listed as < 0.1 nM. For the same compound, the GI50 (KM 12; [12]) was > 100000 nM, the “sensitivity of cancer cell panels / antitumour activity in vitro” value [2] was “non-small cell lung, ovarian, renal and breast cancel cells to be particularly sensitive” and the GI50 (MDA 468; [10]) was < 0.1 nM.
